# ChEMBL document CHEMBL1135759, “Exploring the role of bromine at C(10) of (+)-4-[2-[4-(8-chloro-3,10-dibromo- 6,11-dihydro-5H-benzo[5,6]cyclohepta[1,2-b]pyridin-11(R)-yl)-1-piperidinyl]-2- oxoethyl]-1-piperidinecarboxamide (Sch-66336): the discovery of indolocycloheptapyridine inhibitors of farnesyl protein transferase” (J Med Chem, 2002)
# Target: Protein farnesyltransferase (Homo sapiens, UniProt P49354+P49356)
# Test: Inhibition of Protein farnesyltransferase in an enzyme assay with His6-H-Ras-CVLS
row,SMILES,IC50 [nM]
1,O=C(Cc1cc[n+]([O-])cc1)N1CCC([C@@H]2c3ccc(Cl)cc3CCc3cc(Br)cnc32)CC1,34
2,Cc1c[nH]c2c(Cl)cc3c(c12)[C@@H](C1CCN(C(=O)Cc2cc[n+]([O-])cc2)CC1)c1ncc(Br)cc1CC3,2.6
3,O=C(Cc1cc[n+]([O-])cc1)N1CCC([C@H]2c3ncccc3CCc3cc(Cl)cc(Br)c32)CC1,19
4,"Cc1cn(C)c2c(Cl)cc3c(c12)C(C1CCN(C(=O)Cc2cc[n+]([O-])cc2)CC1)c1ncccc1CC3 (single isomer, unassigned; (+))",> 190
5,"O=C(Cc1cc[n+]([O-])cc1)N1CCC(C2c3ncccc3CCc3cc(Cl)c4[nH]ccc4c32)CC1 (single isomer, unassigned; (+))",42
6,Cc1c[nH]c2c(Cl)cc3c(c12)[C@@H](C1CCN(C(=O)Cc2cc[n+]([O-])cc2)CC1)c1ncccc1CC3 (stereo in doubt; (+)-10a),7.4
7,CCCc1c[nH]c2c(Cl)cc3c(c12)[C@@H](C1CCN(C(=O)Cc2cc[n+]([O-])cc2)CC1)c1ncccc1CC3 (stereo in doubt; (+)-10b),65
8,CCCCc1c[nH]c2c(Cl)cc3c(c12)[C@@H](C1CCN(C(=O)Cc2cc[n+]([O-])cc2)CC1)c1ncccc1CC3 (stereo in doubt; (+)-10c),69
9,Cc1c[nH]c2c(Cl)cc3c(c12)[C@@H](C1CCN(C(=O)Cc2cc[n+]([O-])cc2)CC1)c1ncccc1CC3 (stereo in doubt; (-)-10a),28
10,CCCc1c[nH]c2c(Cl)cc3c(c12)[C@@H](C1CCN(C(=O)Cc2cc[n+]([O-])cc2)CC1)c1ncccc1CC3 (stereo in doubt; (-)-10b),> 190
11,CCCCc1c[nH]c2c(Cl)cc3c(c12)[C@@H](C1CCN(C(=O)Cc2cc[n+]([O-])cc2)CC1)c1ncccc1CC3 (stereo in doubt; (-)-10c),> 180
